Measurements published in patent publication US20240165097A1, “PHARMACEUTICAL COMPOSITION FOR THE TREATMENT OF ALZHEIMER'S DISEASE OR DEMENTIA” (Heptares Therapeutics Limited, priority 2021, published 2024).
Values joined by “and” are separate entries in the source; they are usually repeats but may differ in a detail not shown here. Equal values may be shown once. Read-outs that look alike come from different tables or passages of the source.

System: healthy elderly subjects
[1] = 15 mg HTL0018318 + donepezil vs Placebo
[2] = 15 mg HTL0018318 alone vs 15 mg HTL0018318 donepezil
[3] = 15 mg HTL0018318 alone vs Placebo
[4] = 15 mg and 25 mg, in combination with or without donepezil
[5] = 15 mg in combination with donepezil
[6] = 15 mg in combination with donepezil (5 days)
[7] = 15 mg without donepezil (5 days)
[8] = 25 mg HTL0018318 + donepezil vs Placebo
[9] = 25 mg HTL0018318 alone vs 25 mg HTL0018318 donepezil
[10] = 25 mg HTL0018318 alone vs Placebo
[11] = 25 mg in combination with donepezil
[12] = 25 mg in combination with donepezil (5 days)
[13] = 25 mg without donepezil (5 days)
[14] = 25 mg without donepezil vs in combination with donepezil

## CCOC(=O)N1C2CCC1CC(N1CCC3(CC1)CNC(=O)C3)C2 (stereo not shown) [HTL0018318, ethyl 3-(3-oxo-2,8-diazaspiro[4.5]dec-8-yl)-8-azabicyclo[3.2.1]octane-8-carboxylate]
[1]
  FEV1/FVC, contrast estimate: 1.052%
  FEV 1 second, contrast estimate: 0.043 L
  FVC, contrast estimate: 0.03719 L
  LSEQ: Awake following sleep, contrast estimate: 3.50
  LSEQ: Behaviour after wake, contrast estimate: 1.51
  LSEQ: Getting to sleep, contrast estimate: 1.59
  LSEQ: Quality of sleep, contrast estimate: 2.42
  PEF, contrast estimate: 0.339 L/s
  Saliva, contrast estimate: 0.707 g
  VAS Alertness, contrast estimate: −0.70 mm
  VAS Calmness, contrast estimate: −2.37 mm
  VAS Mood, contrast estimate: −0.24 mm
  VAS Nausea, contrast estimate: −0.08 log(mm)
[2]
  FEV1/FVC, contrast estimate: −0.886%
  FEV 1 second, contrast estimate: 0.127 L
  FVC, contrast estimate: 0.1702 L
  LSEQ: Awake following sleep, contrast estimate: −1.93
  LSEQ: Behaviour after wake, contrast estimate: −0.85
  LSEQ: Getting to sleep, contrast estimate: −0.79
  LSEQ: Quality of sleep, contrast estimate: −0.26
  PEF, contrast estimate: -0.343 L/s
  Saliva, contrast estimate: -0.554 g
  VAS Alertness, contrast estimate: −0.46 mm
  VAS Calmness, contrast estimate: −0.20 mm
  VAS Mood, contrast estimate: −0.03 mm
  VAS Nausea, contrast estimate: −0.01 log(mm)
[3]
  FEV1/FVC, contrast estimate: −0.327%
  FEV 1 second, contrast estimate: 0.153 L
  FVC, contrast estimate: 0.2035 L
  LSEQ: Awake following sleep, contrast estimate: −1.72
  LSEQ: Behaviour after wake, contrast estimate: −1.00
  LSEQ: Getting to sleep, contrast estimate: 0.82
  LSEQ: Quality of sleep, contrast estimate: −5.14
  PEF, contrast estimate: 0.282 L/s
  Saliva, contrast estimate: 0.498 g
  VAS Alertness, contrast estimate: −1.96 mm
  VAS Calmness, contrast estimate: −3.17 mm
  VAS Mood, contrast estimate: −2.93 mm
  VAS Nausea, contrast estimate: −0.06 log(mm)
15 mg alone
  number of AEs in gastrointestinal disorders class, viral gastroenteritis AEs excluded: 1 AE
[4]
  supine pulse rate compared with placebo: no significant effects
  supine systolic blood pressure compared with placebo: no significant effects
[5]
  cholinergic AEs, percentage of subjects: 13%
  nausea reports, viral gastroenteritis AEs excluded: one subject
  supine pulse rate: 64 bpm
[6]
  All AEs, percentage of subjects: 50% ( 4/8 subjects)
  Gastrointestinal disorders, percentage of subjects: 13% (⅛ subjects)
  Neurological disorders, percentage of subjects: 13% (⅛ subjects)
15 mg in combination with donepezil vs without donepezil
  supine pulse rate, mean difference: 3.3 bpm
15 mg without donepezil
  cholinergic AEs, percentage of subjects: 0%
  supine pulse rate: 67 bpm
[7]
  All AEs, percentage of subjects: 43% ( 3/7 subjects)
  Gastrointestinal disorders, percentage of subjects: 14% ( 1/7 subjects)
  Neurological disorders, percentage of subjects: 14% ( 1/7 subjects)
15 mg without donepezil vs in combination with donepezil
  delta pulse rate: no significant changes
15 mg+donepezil
  number of AEs in gastrointestinal disorders class, viral gastroenteritis AEs excluded: 3 AEs
[8]
  FEV1/FVC, contrast estimate: −0.399%
  FEV 1 second, contrast estimate: 0.085 L
  FVC, contrast estimate: 0.1784 L
  LSEQ: Awake following sleep, contrast estimate: 0.52
  LSEQ: Behaviour after wake, contrast estimate: −0.80
  LSEQ: Getting to sleep, contrast estimate: −0.74
  LSEQ: Quality of sleep, contrast estimate: −1.37
  PEF, contrast estimate: 0.273 L/s
  Saliva, contrast estimate: 0.910 g
  VAS Alertness, contrast estimate: −1.49 mm
  VAS Calmness, contrast estimate: −1.67 mm
  VAS Mood, contrast estimate: −0.38 mm
  VAS Nausea, contrast estimate: −0.04 log(mm)
[9]
  FEV1/FVC, contrast estimate: 2.491%
  FEV 1 second, contrast estimate: 0.008 L
  FVC, contrast estimate: -.11255 L
  LSEQ: Awake following sleep, contrast estimate: 0.93
  LSEQ: Behaviour after wake, contrast estimate: 1.86
  LSEQ: Getting to sleep, contrast estimate: 1.72
  LSEQ: Quality of sleep, contrast estimate: 6.49
  PEF, contrast estimate: 0.047 L/s
  Saliva, contrast estimate: -0.349 g
  VAS Alertness, contrast estimate: 0.66 mm
  VAS Calmness, contrast estimate: −0.07 mm
  VAS Mood, contrast estimate: 0.55 mm
  VAS Nausea, contrast estimate: −0.03 log(mm)
[10]
  FEV1/FVC, contrast estimate: 1.600%
  FEV 1 second, contrast estimate: 0.077 L
  FVC, contrast estimate: 0.06192 L
  LSEQ: Awake following sleep, contrast estimate: −1.85
  LSEQ: Behaviour after wake, contrast estimate: −0.60
  LSEQ: Getting to sleep, contrast estimate: 1.01
  LSEQ: Quality of sleep, contrast estimate: −2.18
  PEF, contrast estimate: 0.606 L/s
  Saliva, contrast estimate: 0.906 g
  VAS Alertness, contrast estimate: −1.63 mm
  VAS Calmness, contrast estimate: −2.34 mm
  VAS Mood, contrast estimate: −2.49 mm
  VAS Nausea, contrast estimate: −0.05 log(mm)
25 mg alone
  number of AEs in gastrointestinal disorders class, viral gastroenteritis AEs excluded: 3 AEs
[11]
  cholinergic AEs, percentage of subjects: 69%
  delta pulse rate (standing from supine): 12 bpm and 10 bpm
  supine pulse rate: 64 bpm
  supine systolic blood pressure: 120 mm Hg
[12]
  All AEs, percentage of subjects: 88% ( 14/16 subjects)
  Gastrointestinal disorders, percentage of subjects: 25% ( 4/16 subjects)
  Neurological disorders, percentage of subjects: 38% ( 6/16 subjects)
25 mg in combination with donepezil vs placebo in combination with donepezil
  delta pulse rate, mean difference: −3.4 bpm
25 mg in combination with donepezil vs without donepezil
  supine pulse rate, mean difference: 1.5 bpm
25 mg without donepezil
  cholinergic AEs, percentage of subjects: 67%
  delta pulse rate (standing from supine): 10 bpm and 12 bpm
  supine pulse rate: 66 bpm
  supine systolic blood pressure: 118 mm Hg
[13]
  All AEs, percentage of subjects: 92% ( 11/12 subjects)
  Gastrointestinal disorders, percentage of subjects: 17% ( 2/12 subjects)
  Neurological disorders, percentage of subjects: 50% ( 6/12 subjects)
[14]
  delta pulse rate, mean difference: −1.6 bpm
  supine systolic blood pressure, mean difference: 1.6 mm Hg
25 mg without donepezil vs placebo without donepezil
  delta pulse rate, mean difference: −3.7 bpm
25 mg+donepezil
  number of AEs in gastrointestinal disorders class, viral gastroenteritis AEs excluded: 4 AEs
15 or 25 mg, with and without donepezil
  laboratory tests, ECG assessment and 24-hour Holter ECG: No clinically significant changes
HTL0018318 in combination with donepezil vs HTL0018318 alone
  standing systolic BP, supine and standing diastolic BP, standing-supine BP, standing pulse rate: no significant changes
HTL0018318 in combination with donepezil vs without donepezil
  VAS alertness, calmness, mood, and nausea: no statistically significant effects
All treatments of the study
  intensity and seriousness of AEs: mild or moderate in intensity and there were no serious adverse events
Multiple doses in combination with donepezil
  tolerability: generally well tolerated
